Measurements: patent US8518942B2, “Caspase inhibitors and uses thereof” (Buck Institute for Research on Aging, priority 2008, dated 2013)

How the values were obtained:
caspase-9 = target: T1, caspase-9 (Homo sapiens, UniProt P55211); test: Irreversible inhibitor kinetic assay (progress curve), caspase-9, substrate Ac-LEHD-AFC; type: biochemical; conditions: casp-9; duplicate, SD included
T1 construct: gift: Guy Salvesen's laboratory, Burnham Institute (La Jolla, Calif.)
T1 sequence (P55211 1-315 limits assumed): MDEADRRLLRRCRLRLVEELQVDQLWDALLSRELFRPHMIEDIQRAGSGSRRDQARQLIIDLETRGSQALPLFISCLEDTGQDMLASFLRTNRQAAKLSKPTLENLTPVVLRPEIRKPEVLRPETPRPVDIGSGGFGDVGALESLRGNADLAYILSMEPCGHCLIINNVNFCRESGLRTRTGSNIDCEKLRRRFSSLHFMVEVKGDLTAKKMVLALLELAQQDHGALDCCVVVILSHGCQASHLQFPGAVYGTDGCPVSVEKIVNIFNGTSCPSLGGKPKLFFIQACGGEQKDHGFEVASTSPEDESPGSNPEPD
T1 sequence (P55211 331-416 limits assumed): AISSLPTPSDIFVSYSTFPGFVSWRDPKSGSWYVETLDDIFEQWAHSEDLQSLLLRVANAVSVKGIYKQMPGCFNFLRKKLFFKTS
Excerpt: (§1) Caspases-3, -6, -7, -8, and -9 were provided by Guy Salvesen's laboratory at the Burnham Institute (La Jolla, Calif.). Caspase-1 was purchased from EMD Biosciences (San Diego, Calif.) and Caspase-2 was purchased from Biomol International (Plymouth Meeting, Pa.). Caspase substrates Ac-DEVD-AMC, Ac-VDVAD-AFC, and Ac-LEHD-AFC were purchased from EMD Biosciences (San Diego, Calif.) and Ac-VDVAD-AMC was purchased from Biomol International (Plymouth Meeting, Pa.). The proteolytic cleavage of N-acyl aminocoumarins by caspases was conducted in Dynatech Microfluor fluorescence 96-well microtiter plates, and readings were taken on a Molecular Devices Spectra Max Gemini XS instrument. The excitation wavelength was 370 nm and the emission wavelength was 455 nm for AMCA substrates, the excitation wavelength was 355 nm and the emission wavelength was 450 nm for peptidyl AMC substrates, and the excitation wavelength was 430 nm and the emission wavelength was 535 nm for peptidyl AFC substrates.
(§2) The kinact/Ki for inhibitors were determined under pseudo-first order conditions using the progress curve method (Eckici et al. (2006) J. Med. Chem., 49: 5728-5749; Bieth (1995) Meth. Enzymol., 248: 59-84). Assay wells contained a mixture of inhibitor and AMC or AFC substrate in buffer. Aliquots of caspase were added to each well to initiate the assay. Hydrolysis of the AMC or AFC substrate was monitored fluorometrically for 45 min. To determine the inhibition parameters, time points for which the control ([I]=0) was linear were used. For each inhibitor, a kobs was calculated for at least four different concentrations of inhibitors via a nonlinear regression of the data according to the equation P=(vi/kobs)[1−exp(−kobst) (where product formation=P, […], and the first-order rate constant=kobs). If kobs varied linearly with [I], then the association constant kass was determined by linear regression analysis using kobs=(kass[I])/(1+[S]/Km) where [S] is the concentration of the substrate. […] Inhibition was measured in duplicate and the average of is reported. […]

Hdh111Q cells = test: Evaluation of inhibitors in Hdh111Q cells (toxicity, caspase activation); type: cell-based; conditions: for Hdh111Q mediated toxicity: 1-100 nM; for Caspase activation in Hdh111Q cells: FIG. 18
caspase-2 [1] = target: T2, caspase-2 (Homo sapiens, UniProt P42575); test: Irreversible inhibitor kinetic assay (progress curve), caspase-2, substrate Ac-VDVAD-AMC; type: biochemical; conditions: casp-2; duplicate, SD included
T2 sequence (P42575 170-325 limits assumed): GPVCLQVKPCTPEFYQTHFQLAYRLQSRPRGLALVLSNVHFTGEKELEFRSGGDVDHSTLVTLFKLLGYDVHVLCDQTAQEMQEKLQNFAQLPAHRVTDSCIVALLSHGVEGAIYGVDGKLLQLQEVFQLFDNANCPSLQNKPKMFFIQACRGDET
T2 sequence (P42575 348-452 limits assumed): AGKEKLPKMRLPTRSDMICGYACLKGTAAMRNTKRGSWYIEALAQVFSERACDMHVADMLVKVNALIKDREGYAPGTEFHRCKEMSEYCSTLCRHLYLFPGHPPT
Excerpt: as §1, §2

caspase-2 [2] = target: T2, caspase-2; test: Blots of full-length huntingtin (23Q & 148Q) treated with caspase-2 plus inhibitor; type: biochemical; conditions: for Caspase-2 cleavage of Htt: conclusion; for Inhibition of caspase-2 cleavage of full-length huntingtin (blot): 23Q & 148Q, at the higher concentration of 10 μM

Row | Structure (SMILES) | kinact/Ki (caspase-9) | Hdh111Q mediated toxicity (Hdh111Q cells) | Caspase activation in Hdh111Q cells (Hdh111Q cells) | kass (kinact/Ki, footnote a) (caspase-2 [1]) [s^−1/M^−1] | Caspase-2 cleavage of Htt (caspase-2 [2]) | Rank of potency in blocking caspase activation in Hdh111Q cells (Hdh111Q cells; among MJL-001i, MJL-002i, MJL-003i) | Inhibition of caspase-2 cleavage of full-length huntingtin (blot) (caspase-2 [2])
1 | C[C@@](NC(=O)CCCC(=O)O)(c1cn([C@@H](CC(=O)O)C(=O)COc2c(F)c(F)cc(F)c2F)nn1)C1CCCCC1 [MJL-002i] | 7,550 ± 1,650 s^−1/M^−1 | suppressed | block | 2.0 ± 0.1 | do not inhibit |  | 
2 | C[C@@](NC(=O)Cc1ccccc1)(c1cn([C@@H](CC(=O)O)C(=O)COc2c(F)c(F)cc(F)c2F)nn1)C1CCCCC1 [MJL-003i] | 28,100 ± 2,500 s^−1/M^−1 | suppressed | block | 6.90 ± 0.3 | do not inhibit | most potent | slight inhibition
3 | C[C@@](NS(=O)(=O)Cc1ccccc1)(c1cn([C@@H](CC(=O)O)C(=O)COc2c(F)c(F)cc(F)c2F)nn1)C1CCCCC1 [MJL-001i] | 18,250 ± 4,050 s^−1/M^−1 | suppressed | block | 33.0 ± 0.5 | do not inhibit |  | slight inhibition
